Experimental data as given in ChEMBL document CHEMBL5696442, “Discovery of type II inhibitors of TGFβ-activated kinase 1 (TAK1) and mitogen-activated protein kinase kinase kinase kinase 2 (MAP4K2)” (J Med Chem, 2015).
The source made the active and inactive calls. No cut-off for these calls is given here.

How the values were obtained:
[1] = target: Ribosomal protein S6 kinase alpha-3 (Homo sapiens) (UniProt P51812); test: Inhibition of RSK2 domain2 Protein Kinase Domain labeling site in human Huh-7 cell lysate at 1 uM by KiNativ Profiling analysis relative to control; format: subcellular
Chain of Ribosomal protein S6 kinase alpha-3 (Homo sapiens) (P51812 whole entry, the tested form may be a part): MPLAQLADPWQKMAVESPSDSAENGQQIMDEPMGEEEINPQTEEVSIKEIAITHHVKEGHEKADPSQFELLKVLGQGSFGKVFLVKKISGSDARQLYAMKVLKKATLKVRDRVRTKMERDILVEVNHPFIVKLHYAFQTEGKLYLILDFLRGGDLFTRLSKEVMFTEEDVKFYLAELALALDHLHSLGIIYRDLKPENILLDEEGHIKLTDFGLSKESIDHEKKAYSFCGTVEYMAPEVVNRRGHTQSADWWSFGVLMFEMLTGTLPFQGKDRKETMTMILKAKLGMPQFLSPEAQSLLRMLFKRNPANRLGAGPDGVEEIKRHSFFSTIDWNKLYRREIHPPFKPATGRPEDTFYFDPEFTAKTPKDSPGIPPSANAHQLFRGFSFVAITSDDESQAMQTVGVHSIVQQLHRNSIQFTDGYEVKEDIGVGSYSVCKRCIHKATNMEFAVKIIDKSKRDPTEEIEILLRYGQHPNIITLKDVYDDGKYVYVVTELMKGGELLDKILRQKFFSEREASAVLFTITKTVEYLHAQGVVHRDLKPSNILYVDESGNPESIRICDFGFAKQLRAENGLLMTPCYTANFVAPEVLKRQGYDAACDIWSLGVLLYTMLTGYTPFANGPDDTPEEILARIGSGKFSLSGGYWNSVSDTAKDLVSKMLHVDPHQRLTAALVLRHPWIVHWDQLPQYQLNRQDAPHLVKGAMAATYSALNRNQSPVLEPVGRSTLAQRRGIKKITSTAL

[2] = target: Ribosomal protein S6 kinase alpha-4 (Homo sapiens) (UniProt O75676); test: Inhibition of MSK2 domain1 ATP Loop labeling site in human Huh-7 cells at 1 uM by KiNativ Profiling analysis relative to control; format: cell-based
Chain of Ribosomal protein S6 kinase alpha-4 (Homo sapiens) (O75676 whole entry, looked up, the tested form may be a part): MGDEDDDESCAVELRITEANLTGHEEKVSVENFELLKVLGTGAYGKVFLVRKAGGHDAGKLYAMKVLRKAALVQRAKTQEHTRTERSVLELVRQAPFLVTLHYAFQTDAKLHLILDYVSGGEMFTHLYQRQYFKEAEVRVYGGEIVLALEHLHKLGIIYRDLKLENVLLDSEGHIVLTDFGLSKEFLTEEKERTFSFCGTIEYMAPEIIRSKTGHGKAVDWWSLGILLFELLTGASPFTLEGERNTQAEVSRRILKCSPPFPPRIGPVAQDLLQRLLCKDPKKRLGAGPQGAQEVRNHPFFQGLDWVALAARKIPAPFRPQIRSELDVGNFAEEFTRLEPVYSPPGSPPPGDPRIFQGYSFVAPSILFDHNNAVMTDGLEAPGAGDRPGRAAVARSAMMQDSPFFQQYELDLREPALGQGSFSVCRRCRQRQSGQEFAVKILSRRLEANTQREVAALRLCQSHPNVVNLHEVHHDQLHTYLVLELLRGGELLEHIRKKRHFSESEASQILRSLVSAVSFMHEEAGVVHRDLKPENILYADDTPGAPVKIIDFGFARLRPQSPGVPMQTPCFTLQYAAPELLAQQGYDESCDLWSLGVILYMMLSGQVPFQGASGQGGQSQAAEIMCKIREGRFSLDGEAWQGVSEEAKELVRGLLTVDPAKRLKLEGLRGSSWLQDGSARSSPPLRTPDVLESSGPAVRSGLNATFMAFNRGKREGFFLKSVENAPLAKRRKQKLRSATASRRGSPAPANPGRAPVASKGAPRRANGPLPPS

[3] = target: Protein-tyrosine kinase 2-beta (Homo sapiens) (UniProt Q14289); test: Inhibition of PYK2 (unknown origin) at 1 uM by Ambit Kinomescan binding assay relative to control
Chain of Protein-tyrosine kinase 2-beta (Homo sapiens) (Q14289 whole entry, looked up): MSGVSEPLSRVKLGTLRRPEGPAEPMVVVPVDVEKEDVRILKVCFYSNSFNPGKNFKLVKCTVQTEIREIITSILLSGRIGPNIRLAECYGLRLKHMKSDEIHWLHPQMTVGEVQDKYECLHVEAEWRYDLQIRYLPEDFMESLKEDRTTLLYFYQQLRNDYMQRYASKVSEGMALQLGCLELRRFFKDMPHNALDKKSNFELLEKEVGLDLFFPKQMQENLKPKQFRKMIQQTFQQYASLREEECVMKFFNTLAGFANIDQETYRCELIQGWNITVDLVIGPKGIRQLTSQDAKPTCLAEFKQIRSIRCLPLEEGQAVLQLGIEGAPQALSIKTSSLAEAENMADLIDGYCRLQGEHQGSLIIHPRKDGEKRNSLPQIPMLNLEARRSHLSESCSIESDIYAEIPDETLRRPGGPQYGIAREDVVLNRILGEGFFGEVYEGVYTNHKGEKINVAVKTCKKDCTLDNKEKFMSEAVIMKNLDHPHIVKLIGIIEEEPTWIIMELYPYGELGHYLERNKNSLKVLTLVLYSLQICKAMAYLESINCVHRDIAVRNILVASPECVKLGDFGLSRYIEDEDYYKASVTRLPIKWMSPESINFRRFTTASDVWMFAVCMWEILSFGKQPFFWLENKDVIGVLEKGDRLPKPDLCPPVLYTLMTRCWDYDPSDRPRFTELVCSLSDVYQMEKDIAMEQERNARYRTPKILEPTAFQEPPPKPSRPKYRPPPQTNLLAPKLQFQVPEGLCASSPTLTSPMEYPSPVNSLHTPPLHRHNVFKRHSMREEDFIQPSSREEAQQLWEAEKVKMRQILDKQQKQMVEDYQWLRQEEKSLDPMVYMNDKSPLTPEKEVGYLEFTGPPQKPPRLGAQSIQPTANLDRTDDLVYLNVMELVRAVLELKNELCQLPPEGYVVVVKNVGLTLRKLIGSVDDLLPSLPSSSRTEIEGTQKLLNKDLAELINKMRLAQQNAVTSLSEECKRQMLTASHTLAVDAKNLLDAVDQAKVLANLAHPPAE

[4] = target: T1, Mitogen-activated protein kinase kinase kinase 15 (Homo sapiens) (UniProt Q6ZN16); test: Inhibition of MAP3K15 Lys1 labeling site harbouring IAIKEIPERDSR in human A-375 cells at 0.05 uM by KiNativ Profiling analysis relative to control; format: cell-based
T1 sequence (whole entry): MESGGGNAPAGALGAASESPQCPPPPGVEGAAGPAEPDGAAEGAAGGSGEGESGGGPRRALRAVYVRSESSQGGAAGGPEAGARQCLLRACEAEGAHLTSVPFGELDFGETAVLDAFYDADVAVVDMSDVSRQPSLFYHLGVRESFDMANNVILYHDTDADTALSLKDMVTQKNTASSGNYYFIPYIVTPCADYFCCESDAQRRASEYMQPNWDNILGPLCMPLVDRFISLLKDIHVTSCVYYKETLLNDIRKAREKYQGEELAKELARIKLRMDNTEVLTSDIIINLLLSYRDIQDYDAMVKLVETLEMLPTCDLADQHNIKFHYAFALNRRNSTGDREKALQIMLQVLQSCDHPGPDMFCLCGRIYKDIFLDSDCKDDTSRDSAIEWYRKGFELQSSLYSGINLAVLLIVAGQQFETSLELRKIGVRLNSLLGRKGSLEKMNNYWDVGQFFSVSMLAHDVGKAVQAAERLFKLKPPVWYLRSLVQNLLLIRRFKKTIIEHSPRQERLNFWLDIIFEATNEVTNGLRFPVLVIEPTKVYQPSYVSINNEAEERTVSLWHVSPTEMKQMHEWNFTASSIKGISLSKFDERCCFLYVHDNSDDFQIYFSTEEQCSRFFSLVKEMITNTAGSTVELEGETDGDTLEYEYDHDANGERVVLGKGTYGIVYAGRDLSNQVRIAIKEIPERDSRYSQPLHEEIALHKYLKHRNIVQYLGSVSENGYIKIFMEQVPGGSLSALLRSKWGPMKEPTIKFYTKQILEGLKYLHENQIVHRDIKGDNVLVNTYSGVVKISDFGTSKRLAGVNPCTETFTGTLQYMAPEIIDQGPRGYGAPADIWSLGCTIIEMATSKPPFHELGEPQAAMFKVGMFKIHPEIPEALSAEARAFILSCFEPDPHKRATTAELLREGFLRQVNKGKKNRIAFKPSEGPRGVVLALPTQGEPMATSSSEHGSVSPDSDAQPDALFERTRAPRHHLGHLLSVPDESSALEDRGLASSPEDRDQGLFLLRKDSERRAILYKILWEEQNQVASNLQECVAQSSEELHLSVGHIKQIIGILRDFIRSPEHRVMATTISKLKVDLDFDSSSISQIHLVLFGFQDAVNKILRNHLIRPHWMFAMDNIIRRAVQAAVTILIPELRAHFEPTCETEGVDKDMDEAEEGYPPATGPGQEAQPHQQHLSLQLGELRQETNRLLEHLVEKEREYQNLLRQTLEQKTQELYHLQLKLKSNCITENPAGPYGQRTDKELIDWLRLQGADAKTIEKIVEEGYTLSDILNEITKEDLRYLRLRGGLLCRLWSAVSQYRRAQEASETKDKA

[5] = target: Serine/threonine-protein kinase mTOR (Homo sapiens) (UniProt P42345); test: Inhibition of FRAP ATP labeling site in human Huh-7 cells at 10 uM by KiNativ Profiling analysis relative to control; format: cell-based
[6] = target: T1, Mitogen-activated protein kinase kinase kinase 15 (Homo sapiens); test: Inhibition of MAP3K15 Lys1 labeling site harbouring IAIKEIPER in human A-375 cells at 0.05 uM by KiNativ Profiling analysis relative to control; format: cell-based
[7] = target: Cyclin-dependent kinase 2 (Homo sapiens) (UniProt P24941); test: Inhibition of CDK2 (unknown origin) at 10 uM by Ambit Kinomescan binding assay relative to control
[8] = target: T2, Phosphatidylinositol 5-phosphate 4-kinase type-2 gamma (Homo sapiens) (UniProt Q8TBX8); test: Inhibition of PIP5K2C C2 labeling site in human Huh-7 cells at 1 uM by KiNativ Profiling analysis relative to control; format: cell-based
T2 sequence (whole entry): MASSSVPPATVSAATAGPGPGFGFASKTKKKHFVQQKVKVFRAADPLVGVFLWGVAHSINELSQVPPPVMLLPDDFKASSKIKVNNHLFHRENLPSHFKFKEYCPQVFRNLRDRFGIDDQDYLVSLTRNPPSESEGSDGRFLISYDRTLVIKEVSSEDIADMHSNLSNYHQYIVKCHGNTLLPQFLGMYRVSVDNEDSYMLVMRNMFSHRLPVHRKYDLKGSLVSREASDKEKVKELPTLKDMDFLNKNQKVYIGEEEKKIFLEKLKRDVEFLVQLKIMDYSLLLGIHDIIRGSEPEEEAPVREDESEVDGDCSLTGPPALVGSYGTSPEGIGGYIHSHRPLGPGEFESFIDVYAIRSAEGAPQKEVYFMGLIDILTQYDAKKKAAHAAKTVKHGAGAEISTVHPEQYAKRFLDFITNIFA

[9] = target: Proto-oncogene tyrosine-protein kinase Src (Homo sapiens, UniProt P12931); test: Inhibition of SRC ACT labeling site in human Huh-7 cells at 1 uM by KiNativ Profiling analysis relative to control; format: cell-based
Chain of Proto-oncogene tyrosine-protein kinase Src (P12931 2-536 limits assumed): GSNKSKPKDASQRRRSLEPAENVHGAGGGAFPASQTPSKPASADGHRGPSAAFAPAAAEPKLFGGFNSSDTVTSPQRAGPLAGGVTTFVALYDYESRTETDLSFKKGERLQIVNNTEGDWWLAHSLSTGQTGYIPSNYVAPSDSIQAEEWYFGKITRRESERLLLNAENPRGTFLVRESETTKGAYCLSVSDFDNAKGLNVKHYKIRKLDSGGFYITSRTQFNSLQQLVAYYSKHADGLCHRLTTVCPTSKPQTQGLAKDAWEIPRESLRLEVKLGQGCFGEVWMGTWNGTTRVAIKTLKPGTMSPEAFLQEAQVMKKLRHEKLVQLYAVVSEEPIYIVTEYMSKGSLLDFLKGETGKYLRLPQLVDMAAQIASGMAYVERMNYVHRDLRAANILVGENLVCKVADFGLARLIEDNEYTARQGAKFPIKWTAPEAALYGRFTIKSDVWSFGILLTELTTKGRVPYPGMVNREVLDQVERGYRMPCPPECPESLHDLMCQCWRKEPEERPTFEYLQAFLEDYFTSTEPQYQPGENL

[10] = target: Tyrosine-protein kinase Fer (Homo sapiens, UniProt P16591); test: Inhibition of FER K1 labeling site in human Huh-7 cells at 10 uM by KiNativ Profiling analysis relative to control; format: cell-based
Chain of Tyrosine-protein kinase Fer (P16591 whole entry, looked up): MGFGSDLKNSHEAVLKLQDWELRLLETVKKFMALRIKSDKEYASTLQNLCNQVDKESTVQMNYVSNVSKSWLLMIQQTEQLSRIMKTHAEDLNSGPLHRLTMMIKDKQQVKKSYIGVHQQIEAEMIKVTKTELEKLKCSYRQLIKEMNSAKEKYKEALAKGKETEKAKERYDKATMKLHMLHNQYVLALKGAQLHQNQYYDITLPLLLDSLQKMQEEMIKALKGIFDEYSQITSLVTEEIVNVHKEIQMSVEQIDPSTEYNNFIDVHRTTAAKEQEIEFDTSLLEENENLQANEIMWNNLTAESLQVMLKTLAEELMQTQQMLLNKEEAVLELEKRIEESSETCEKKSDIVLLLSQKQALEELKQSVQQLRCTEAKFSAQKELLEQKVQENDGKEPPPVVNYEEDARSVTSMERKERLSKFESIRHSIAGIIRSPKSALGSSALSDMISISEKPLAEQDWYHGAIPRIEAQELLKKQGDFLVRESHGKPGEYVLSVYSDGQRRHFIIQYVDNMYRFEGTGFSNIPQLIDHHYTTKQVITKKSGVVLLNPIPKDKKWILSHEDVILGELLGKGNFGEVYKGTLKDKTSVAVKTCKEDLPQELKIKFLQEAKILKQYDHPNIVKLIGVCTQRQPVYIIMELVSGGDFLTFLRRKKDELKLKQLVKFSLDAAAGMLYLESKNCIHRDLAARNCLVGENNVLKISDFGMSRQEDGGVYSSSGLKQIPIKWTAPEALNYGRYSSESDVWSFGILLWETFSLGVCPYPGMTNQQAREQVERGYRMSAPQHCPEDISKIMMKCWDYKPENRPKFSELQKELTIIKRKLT

[11] = target: Cyclin-dependent kinase 1 (Homo sapiens) (UniProt P06493); test: Inhibition of CDC2 K2 labeling site harbouring DLKPQNLLIDDKGTIK in human Huh-7 cells at 10 uM by KiNativ Profiling analysis relative to control; format: cell-based
Chain of Cyclin-dependent kinase 1 (Homo sapiens) (P06493 whole entry, looked up): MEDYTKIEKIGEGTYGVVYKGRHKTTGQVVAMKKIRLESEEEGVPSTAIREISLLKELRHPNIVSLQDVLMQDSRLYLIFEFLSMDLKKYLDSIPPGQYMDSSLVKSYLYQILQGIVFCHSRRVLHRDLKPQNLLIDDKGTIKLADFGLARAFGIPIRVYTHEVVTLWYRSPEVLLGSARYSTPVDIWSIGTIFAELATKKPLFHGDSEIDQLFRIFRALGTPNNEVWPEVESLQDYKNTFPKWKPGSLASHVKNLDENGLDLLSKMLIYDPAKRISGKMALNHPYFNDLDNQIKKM

CNc1cc(Oc2cc(C(=O)Nc3cc(N4CCN(C)CC4)cc(C(F)(F)F)c3)ccc2C)ncn1
inhibition [1]: 5.9%
inhibition [2]: 11.5%

CCN1CCN(Cc2ccc(NC(=O)c3ccc(C)c(/C=C/c4cnc5[nH]ccc5c4OC)c3)cc2C(F)(F)F)CC1
inhibition [3]: 19%

CCN1CCN(Cc2ccc(NC(=O)c3ccc(C)c(Oc4ccnc5[nH]ccc45)c3)cc2C(F)(F)F)CC1
inhibition [4]: -3.3%
inhibition [5]: inactive
inhibition [6]: 10.8%
inhibition [7]: 11%
inhibition [8]: 1.3%
inhibition [9]: -0.3%
inhibition [10]: 83.3%
inhibition [11]: -1.7%
